# Laboratory results published in paper PMC10254366, “The Structure of Maltooctaose-Bound Escherichia coli Branching Enzyme Suggests a Mechanism for Donor Chain Specificity” (Molecules, 2023).
# Molecular target: T1, EcBE (E. coli branching enzyme) (Escherichia coli, UniProt P07762)
# T1 construct: gene glgB; N-domain removed (first 113 amino acids of full-length EcBE); CBM48, catalytic and C-terminal domains kept; overexpressed in E. coli; four molecules per asymmetric unit
# T1 sequence (P07762 114-728): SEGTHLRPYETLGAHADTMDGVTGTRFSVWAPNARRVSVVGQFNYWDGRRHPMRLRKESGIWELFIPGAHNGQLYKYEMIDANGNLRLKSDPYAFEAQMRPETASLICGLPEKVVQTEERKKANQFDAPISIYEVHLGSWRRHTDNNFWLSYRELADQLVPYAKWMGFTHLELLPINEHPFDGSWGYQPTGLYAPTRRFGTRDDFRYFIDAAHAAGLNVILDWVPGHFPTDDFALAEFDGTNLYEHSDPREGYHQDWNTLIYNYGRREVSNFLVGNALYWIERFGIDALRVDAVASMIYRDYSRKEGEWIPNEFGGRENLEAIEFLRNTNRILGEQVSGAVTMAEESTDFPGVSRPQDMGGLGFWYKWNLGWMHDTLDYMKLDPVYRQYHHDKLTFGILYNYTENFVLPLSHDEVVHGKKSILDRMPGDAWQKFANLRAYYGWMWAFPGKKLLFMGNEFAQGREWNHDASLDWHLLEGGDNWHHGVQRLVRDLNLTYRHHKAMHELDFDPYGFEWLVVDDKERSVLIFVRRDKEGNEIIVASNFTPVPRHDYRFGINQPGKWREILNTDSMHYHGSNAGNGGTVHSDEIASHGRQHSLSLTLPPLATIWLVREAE
# Assay: X-ray crystallography, crystal soak, […] Å
# Type: binding
# Conditions: crystals soaked in 150 mM maltooctaose 5.5 h, 1.3 M ammonium tartrate pH 7.6, 10% PEG 4000; surface sites I-V and VIII-XII, not active site
smiles,measurement,value
"OC[C@H]1O[C@H](O[C@H]2[C@H](O)[C@@H](O)[C@@H](O[C@H]3[C@H](O)[C@@H](O)[C@@H](O[C@H]4[C@H](O)[C@@H](O)[C@@H](O[C@H]5[C@H](O)[C@@H](O)[C@@H](O[C@H]6[C@H](O)[C@@H](O)[C@@H](O[C@H]7[C@H](O)[C@@H](O)[C@@H](O[C@H]8[C@H](O)[C@@H](O)C(O)O[C@@H]8CO)O[C@@H]7CO)O[C@@H]6CO)O[C@@H]5CO)O[C@@H]4CO)O[C@@H]3CO)O[C@@H]2CO)[C@H](O)[C@@H](O)[C@@H]1O (stereo partly shown) [M8, maltooctaose]","X-ray crystallography, crystal soak, 3.0 Å",we report the crystal structure of the maltooctaose-bound branching enzyme from the enterobacteria E. coli
